# Laboratory results as given in patent publication US20230033195A1, “METHODS AND COMPOSITIONS FOR IMPROVING COGNITIVE FUNCTION” (THE JOHNS HOPKINS UNIVERSITY, priority 2011, published 2023).
# Columns and labels:
# [1] = test system: DG/CA3 of aMCI subjects; assay: fMRI activity during lure stimuli correctly identified as similar, DG/CA3; type: in vivo, human; conditions: 125 mg twice a day for two weeks
# Protocol: FIG. 8B depicts the average activity in the left CA3 of aMCI subjects with placebo treatment or levetiracetam treatment (125 mg twice a day for two weeks) during the presentation of lure stimuli that the subject correctly identified as "similar."
# A within-subjects trial of 8 weeks duration, involving 17 amnestic MCI (aMCI) subjects and 17 age-matched controls with a low dose treatment of levetiracetam is conducted. During the course of the study, each aMCI subject receives both drug and placebo treatments separately in two periods of two weeks each, with the order of treatments among different aMCI subjects counterbalanced (see FIG. 7). Age-matched control subjects treated with placebo serve as a further control. Cognitive testing and fMRI imaging data are obtained from the subjects after each two week period of drug/placebo treatment.
# Imaging data are obtained through high-resolution methods developed in the Stark laboratory. Data are collected on a Phillips 3 Tesla scanner (Eindhoven, The Netherlands) equipped with an 8-channel SENSE (Sensitivity Encoding) head coil, located at the F.M. Kirby Research Center for Functional Brain Imaging at the Kennedy Krieger Institute (Baltimore, MD). […]
# Group data are analyzed using a two-way Analysis of Variance (ANOVA) with trial types and group as fixed factors, and subject as a random factor nested within group. […]
# [2] = test system: aMCI subjects; assay: explicit 3-alternative forced choice task; type: in vivo, human; conditions: 125 mg twice a day for two weeks, vs placebo, p = 0.039
# Text: Each bar represents the proportion of the subjects responses (old, similar, or new) when presented with a lure image.
# There are various tests known in the art for assessing cognitive function in humans, for example and without limitation, the clinical global impression of change scale (CIBIC-plus scale); the Mini Mental State Exam (MMSE); the Neuropsychiatric Inventory (NPI); the Clinical Dementia Rating Scale (CDR); the Cambridge Neuropsychological Test Automated Battery (CANTAB); the Sandoz Clinical Assessment-Geriatric (SCAG), the Buschke Selective Reminding Test (Buschke and Fuld, 1974); the Verbal Paired Associates subtest; the Logical Memory subtest; the Visual Reproduction subtest of the Wechsler Memory Scale-Revised (WMS-R) (Wechsler, 1997); or the Benton Visual Retention Test. See Folstein et al., J Psychiatric Res 12: 189-98, (1975); Robbins et al., Dementia 5: 266-81, (1994); Rey, L'examen clinique en psychologie, (1964); Kluger et al., J Geriatr Psychiatry Neurol 12:168-79, (1999); Marquis et al., 2002 and Masur et al., 1994. Another example of a cognitive test in humans is the explicit 3-alternative forced choice task. […]
# The activity of the subject's medial temporal lobe is measured by functional MRI during the subject's participation in an explicit 3-alternative forced choice task, where participants view novel, repeated and similar ("lure") stimuli. […]
structure (smiles),measurement,setting,value
"CC[C@@H](C(N)=O)N1CCCC1=O [levetiracetam, (2S)-2-(2-oxopyrrolidin-1-yl) butanamide]",DG/CA3 activity compared with control subjects treated with placebo,[1],statistically indistinguishable
same,"DG/CA3 activity during successful memory judgments, vs placebo treatment",[1]; p = 0.037,reduces DG/CA3 hyper-activity
same,performance in the explicit 3-alternative forced choice task (similar vs old responses to lures),[2],improves significantly
